From patent US20190076406A1, “METHODS AND COMPOSITIONS FOR TREATING CONDITIONS ASSOCIATED WITH ANGIOGENESIS USING A VASCULAR ADHESION PROTEIN-1 (VAP-1) INHIBITOR” (MASSACHUSETTS EYE & EAR INFIRMARY, priority 2007, published 2019)

What was measured:
MCP-1 = assay: ELISA of MCP-1 in RPE-choroid complex after laser injury; type: in vivo, rat; settings: 3 days after laser injury; 0.3 mg/kg daily i.p.; mean±SEM
Procedure: Brown-Norway rats were anesthetized with 0.2-0.3 ml of a 50:50 mixture of 100 mg/ml Ketamine and 20 mg/ml Xylazine. Pupils were dilated with 5.0% Phenylephrine and 0.8% Tropicamide. CNV was induced with a 532 nm laser (Oculight GLx, Iridex, Mountain View, Calif.). Six laser spots (150 mW, 100 μm, 100 msec) were placed in each eye using a slit-lamp delivery system and a cover glass as a contact lens. Production of a bubble at the time of laser confirmed the rupture of the Bruch's membrane.
To block VAP-1, a specific VAP-1 inhibitor, Compound II described above, was used (R-tech Ueno, Ltd., Tokyo, Japan). […]
The RPE-choroid complex was carefully isolated from eyes 3 days after photocoagulation and placed in 300 μl of lysis buffer supplemented with protease inhibitors and sonicated. The lysate was centrifuged at 15,000 rpm for 15 minutes at 4° C. and the levels of TNF-α, monocyte chemotactic protein (MCP)-1, and intercellular adhesion molecule (ICAM)-1 were determined with rat TNF-α (BD bioscience), MCP-1 (BD bioscience) and ICAM-1 (R&D Systems, Minneapolis, Minn.) enzyme-linked immunosorbent assay (ELISA) kits according to the manufacturers' protocols. Total protein concentration was determined using a Bio-Rad Protein Assay Kit (Bio-Rad Laboratories Hercules, Calif.) and dilutions of bovine serum albumin (Bio-Rad Laboratories) as standards.

[1] = test system: IL-1β-induced corneal lymphangiogenesis in BALB/c mice; assay: IL-1β-induced corneal lymphangiogenesis (LYVE-1 stain); type: in vivo, mouse; settings: IL-1β pellet; i.p. administration; vs vehicle
Procedure: BALB/c mice were anesthetized by intrapcritoneal (i.p.) injection of pentobarbital sodium (60 mg/kg). Hydron pellets (0.3 μl) containing 30 ng mouse IL-1β (401-ML; R&D Systems) were prepared and implanted into the corneas. Pellets were positioned 1 mm from the corneal limbus. Implanted eyes were treated with Bacitracin ophthalmic ointment (E. Fougera & Co.) to prevent infection.
To block VAP-1, mice received daily i.p. injections of a specific VAP-1 inhibitor, Compound II (R-tech Ueno Ltd., Tokyo, Japan) as described above. A daily dose of 0.3 mg/kg was administered at day 0 and continued until the sixth day after implantation. Two, four and six days after implantation, digital images of the corneal vessels were obtained and recorded using OpenLab software version 2.2.5 (Improvision Inc.) with standardized illumination and contrast and were saved onto disks. The quantitative analysis of new vessel growth in the mouse corneas was performed using Scion Image software (version 4.0.2; Scion Corp.).
Eyes were enucleated and fixed with 4% paraformaldehyde for one hour at 4° C. For whole-mount preparation, the corneas were exposed by removing other portions of the eye (i.e. iris, sclera, retina, and conjunctiva). After washing with PBS, tissues were placed in methanol for 20 minutes. […]

[2] = target: T1, monoamine oxidase (MAO)-A (Homo sapiens, UniProt P21397); assay: IC50 against MAO-A; type: biochemical
T1 sequence (P21397 1-527): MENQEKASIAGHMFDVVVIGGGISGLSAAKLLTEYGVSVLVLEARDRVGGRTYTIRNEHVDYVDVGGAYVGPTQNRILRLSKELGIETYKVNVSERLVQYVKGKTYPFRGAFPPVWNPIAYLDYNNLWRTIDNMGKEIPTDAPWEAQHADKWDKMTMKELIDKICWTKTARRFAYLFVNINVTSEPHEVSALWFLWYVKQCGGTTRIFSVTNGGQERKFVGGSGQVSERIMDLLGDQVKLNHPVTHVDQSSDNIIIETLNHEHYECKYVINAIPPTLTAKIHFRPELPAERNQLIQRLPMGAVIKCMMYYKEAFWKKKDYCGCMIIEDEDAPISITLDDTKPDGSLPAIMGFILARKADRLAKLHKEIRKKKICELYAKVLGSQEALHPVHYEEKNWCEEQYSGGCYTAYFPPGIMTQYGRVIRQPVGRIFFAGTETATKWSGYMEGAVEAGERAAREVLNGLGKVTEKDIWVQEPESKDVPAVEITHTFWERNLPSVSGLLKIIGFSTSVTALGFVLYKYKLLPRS

CC(=O)Nc1nc(CCc2ccc(NC(=N)NN)cc2)c(Cc2ccc(S(C)(=O)=O)cc2)s1 [Compound II]
MCP-1 protein level in RPE-choroid complex (MCP-1): 662 ± 52 pg/mg | growth of lymphatic vessels in cornea [1]: reduced growth of lymphatic vessels | IC50 [2]: > 10 µM
